Measured values taken from patent US20180255777A1, “Metal Ion Complex-Modified Layered Silicates” (priority 2017, published 2018).

System: E. coli
Assay: Disk diffusion method, zone of inhibition
Type: cell-based, Escherichia coli
Description: Working solutions were prepared by dissolving of N-alkylimidazoles (100 mg) in ethanol (50 μL). Blank disks were impregnated with 10 μL of solution and the disks placed on nutrient agar containing a confluent E. coli culture. The plates were incubated at 37° C. for 18-24 h and antimicrobial activity determined by measuring the zone of inhibition. The experiments were performed in triplicate.
The antibacterial activity of N-alkylimidazoles was investigated by the disk diffusion and broth methods against E. coli as a model microorganism.

## silver(I)-N-octylimidazole complex [Ag(octlm)2]
Disk diffusion against E. coli, comparison across alkyl chain lengths
  antibacterial activity (in words): superior activity
Disk diffusion, nutrient agar with confluent E. coli culture, 37° C., 18-24 h, triplicate
  Zone of inhibition diameter: 21 ± 1.4 mm
